Measurements from US20220041641A1, “QUATERNARY AMMONIUM SALTS AS INHIBITORS OF TRIMETHYLAMINE PRODUCTION” (Senda Biosciences, Inc., priority 2018, published 2022).

Tests used:
[1] = biological target: CutC from Proteus mirabilis (Proteus mirabilis, UniProt B4EYG1); test: Cell-based assay for TMA production from a native producer (P. mirabilis); conditions: d9-TMA from 1 mM d9-choline, 5 h, 37° C.; value 10 given when no fit or % TMA remaining at 10 μM higher than 15%; read-out: Average IC50 Whole cell P. mirabilis
Sequence of CutC from Proteus mirabilis (B4EYG1 entry or part of it): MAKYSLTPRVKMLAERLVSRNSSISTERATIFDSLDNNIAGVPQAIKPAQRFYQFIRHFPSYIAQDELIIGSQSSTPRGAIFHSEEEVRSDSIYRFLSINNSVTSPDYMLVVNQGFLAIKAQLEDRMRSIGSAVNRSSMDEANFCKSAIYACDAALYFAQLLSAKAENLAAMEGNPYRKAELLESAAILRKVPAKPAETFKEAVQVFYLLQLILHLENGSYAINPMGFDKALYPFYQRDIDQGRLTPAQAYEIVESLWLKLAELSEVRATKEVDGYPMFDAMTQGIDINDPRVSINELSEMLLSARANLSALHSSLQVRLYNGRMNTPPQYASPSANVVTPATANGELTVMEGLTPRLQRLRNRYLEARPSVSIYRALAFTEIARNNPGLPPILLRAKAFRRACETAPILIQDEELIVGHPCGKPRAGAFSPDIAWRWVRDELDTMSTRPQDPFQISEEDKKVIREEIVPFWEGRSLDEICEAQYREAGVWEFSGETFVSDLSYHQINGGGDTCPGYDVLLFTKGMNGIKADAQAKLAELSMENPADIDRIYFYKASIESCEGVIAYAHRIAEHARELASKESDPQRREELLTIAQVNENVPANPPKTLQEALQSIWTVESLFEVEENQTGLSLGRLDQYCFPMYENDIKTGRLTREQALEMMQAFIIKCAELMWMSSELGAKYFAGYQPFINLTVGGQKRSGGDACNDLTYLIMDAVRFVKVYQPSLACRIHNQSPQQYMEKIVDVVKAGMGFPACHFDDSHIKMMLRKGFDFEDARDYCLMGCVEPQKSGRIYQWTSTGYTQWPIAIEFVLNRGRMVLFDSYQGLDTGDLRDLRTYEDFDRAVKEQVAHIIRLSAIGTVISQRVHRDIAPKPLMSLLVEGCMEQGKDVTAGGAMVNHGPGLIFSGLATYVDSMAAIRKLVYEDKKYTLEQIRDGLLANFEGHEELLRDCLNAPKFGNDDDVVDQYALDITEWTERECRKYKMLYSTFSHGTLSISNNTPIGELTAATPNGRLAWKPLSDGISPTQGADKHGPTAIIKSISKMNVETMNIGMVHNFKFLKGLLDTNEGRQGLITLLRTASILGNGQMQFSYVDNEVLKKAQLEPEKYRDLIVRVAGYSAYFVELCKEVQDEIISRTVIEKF
Sequence of CutC from Proteus mirabilis (B4EYG0 entry or part of it, further chain): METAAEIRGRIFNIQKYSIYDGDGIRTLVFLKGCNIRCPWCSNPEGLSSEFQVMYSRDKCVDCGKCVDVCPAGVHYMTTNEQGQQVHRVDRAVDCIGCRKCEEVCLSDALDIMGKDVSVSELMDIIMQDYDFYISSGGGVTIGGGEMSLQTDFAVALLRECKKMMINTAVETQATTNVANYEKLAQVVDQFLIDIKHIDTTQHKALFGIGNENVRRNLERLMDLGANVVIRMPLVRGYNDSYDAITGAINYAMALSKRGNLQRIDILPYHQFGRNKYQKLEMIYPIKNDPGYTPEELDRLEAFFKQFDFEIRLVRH
Summary of the method: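 Overnight anaerobic cultures of P. mirabilis or C. sporogenes, grown in BHI with 1 mM choline, were diluted and given 1 mM (trimethyl-d9)-choline plus compound at 10 μM final. After 5 h at 37° C., d9-TMA was quantified by LCMS.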

[2] = system: enzymatic activity in fecal matter; test: Inhibition of enzymatic activity in fecal matter; type: cell-based; conditions: d9-choline 1 mM, 16 hours at 37° C., anaerobic, d9-TMA by LCMS
Procedure: Inhibition of enzymatic activity in fecal matter was determined by adding a substrate (d9-choline, 1 mM final concentration) and a compound in a range of concentrations in order to determine an IC50. After incubation for a designated 16 hours at 37° C. in anaerobic conditions, samples were be prepared for LCMS analysis, and the amount of d9-TMA produced was determined using LCMS analysis as in the Examples above.

in vivo = test: in vivo; design: species or system Sprague-Dawley rats; conditions: Sprague-Dawley, rat
Procedure: Sprague-Dawley rats (three rats per compound) were treated with a single intravenous (IV) 1 mg/kg dose or orally (PO) a single 10 mg/kg dose. Plasma concentrations of the conjugates were determined by LCMS at 5 minutes, 15 minutes, 30 minutes, 1 hour, 2 hours, 4 hours, 8 and 24 hours post compound administration. […] In addition, the plasma exposure and bioavailability of the active agent of was lower when dosed as a conjugate instead of the active agent alone.

[3] = Pharmacokinetic study of colon contents and plasma after oral dose of conjugate; type: in vivo, male C57B3L/6 mice; conditions: male, C57B3L/6, mouse, in vivo, po
Procedure: To confirm that the active agent component of the conjugate is released in the gastrointestinal tract, a pharmacokinetic study was conducted in male C57B3L/6 mice examining conjugate and active agent of concentrations in both the colon contents and plasma after oral dose of conjugate. Conjugate and active agent of were quantified by LCMS at 0 (pre-dose), 0.25, 0.5, 1, 2, 4, 6, 8, 12, and 24 hours post-dose of compound.

[4] = Caco-2 permeability assay; type: in vitro ADME; conditions: human, Caco-2, pH 7.4
Procedure: Preparation of Caco-2 Cells: 50 μL and 25 mL of cell culture medium were added to each well of the Transwell insert and reservoir, respectively. The HTS transwell plates were incubated at 37° C., 5% CO2 for 1 hour before cell seeding. […] Cell culture medium was replaced every other day, beginning no later than 24 hours after initial plating.
Assessment of Cell Monolayer Integrity: Medium was removed from the reservoir and each Transwell insert and replaced with prewarmed fresh culture medium. Transepithelial electrical resistance (TEER) across the monolayer was measured using Millicell Epithelial Volt-Ohm measuring system (Millipore, USA). The Plate was returned to the incubator once the measurement was done. The TEER value was calculated according to the following equation: […]
Preparation of Solutions: 2 mM stock solutions in DMSO of control compounds were prepared and diluted with HBSS (10 mM HEPES, pH 7.4) to get 10 μM working solution. 0.2 mM stock solutions of test compounds in DMSO were prepared and diluted with HBSS (10 mM HEPES, pH 7.4 with 0.5% BSA) to get 1 μM working solution. Metoprolol, erythromycin and cimetidine were used as control compounds.
The Caco-2 plate was removed from the incubator. The monolayer was washed twice with pre-warmed HBSS (10 mM HEPES, pH 7.4). The plate was incubated at 37° C. for 30 minutes. To determine the rate of drug transport in the apical to basolateral direction, 125 μL of the working solution was added to the Transwell insert (apical compartment). A 50 μL sample was transferred immediately from the apical compartment to 200 μL of acetonitrile containing IS (100 nM alprazolam, 200 nM Caffeine and 100 nM tolbutamide) in a new 96-well plate as the initial donor sample (A-B) and it was vortexed at 1000 rpm for 10 minutes. The wells in the receiver plate (basolateral compartment) were filled with 235 μL of transport buffer. To determine the rate of drug transport in the basolateral to apical direction, 285 μL of the working solution were added to the receiver plate wells (basolateral compartment). A 50 μL sample was transferred immediately from the basolateral compartment to 200 μL of acetonitrile containing IS (100 nM alprazolam, 200 nM Caffeine and 100 nM tolbutamide) in a new 96-well plate as the initial donor sample (B-A) and it was vortexed at 1000 rpm for 10 minutes. The Transwell insert (apical compartment) was filled with 75 μL of transport buffer. The apical to basolateral direction and the basolateral to apical direction need to be done at the same time. The plates were incubated at 37° C. for 2 hours. At the end of the incubation, 50 μL samples from donor sides (apical compartment for Ap→Bl flux, and basolateral compartment for B1→Ap) and receiver sides (basolateral compartment for Ap→Bl flux, and apical compartment for B1→Ap) were transferred to wells of a new 96-well plate, followed by the addition of 4 volume of acetonitrile containing IS (100 nM alprazolam, 200 nM Caffeine and 100 nM tolbutamide). Samples were vortexed for 10 minutes, 50 μL samples were transferred to wells of a new 96-well plate, followed by the addition of 50 μL Hepes and 200 μL IS. All samples were vortexed for 10 minutes, and then centrifuged at 3,220 g for 40 minutes. An aliquot of 150 μL of the supernatant was mixed with an appropriate volume of ultra-pure water before LC-MS/MS analysis.
Apparent permeability (Papp) can be calculated for drug transport assays using the following equation: […]
Papp is apparent permeability (cm/s×10^−6);
Papp (B-A) indicates the apparent permeability coefficient in basolateral to apical direction, and
Papp (A-B) indicates the apparent permeability coefficient in apical to basolateral direction.

SMILES	IC50 [1] [nM]	IC50 [2] [nM]	Cmax (in vivo; iv, 1 mg/kg) [nM]	Cmax (in vivo; po, 10 mg/kg) [nM]	% F (in vivo; po, 10 mg/kg) [%]	bioavailability (in vivo; po, 10 mg/kg) [%]	Cmax [3] [nM]	Papp A→B at 2 h, 1 µM [4] [×10⁻⁶ cm/s]	Papp B→A at 2 h, 1 µM [4] [×10⁻⁶ cm/s]
CC(=O)OC[C@@H]1O[C@H](OCC[N+](C)(C)CCl)[C@@H](OC(C)=O)[C@H](OC(C)=O)[C@H]1OC(C)=O (stereo in doubt) [Compound 78, N-(chloromethyl)-N,N-dimethyl-2-(((2S,3S,4R,5S,6S)-3,4,5-triacetoxy-6-(acetoxymethyl)tetrahydro-2H-pyran-2-yl)oxy)ethan-1-aminium Iodide]	≥ 10000	390	6	–	–	–	–	–	–
CC(=O)OC[C@@H]1O[C@H](OCC[N+](C)(C)CF)[C@@H](OC(C)=O)[C@H](OC(C)=O)[C@H]1OC(C)=O (stereo in doubt) [Compound 79, N-(fluoromethyl)-N,N-dimethyl-2-(((2S,3S,4R,5S,6S)-3,4,5-triacetoxy-6-(acetoxymethyl)tetrahydro-2H-pyran-2-yl)oxy)ethan-1-aminium Iodide]	≥ 10000	1170	1	50	–	–	–	–	–
CC(=O)OCC1OC(OCC[N+](C)(C)CF)C(OC(C)=O)C(OC(C)=O)C1OC(C)=O.[I-] (stereo in doubt) [Compound 79, N-(fluoromethyl)-N,N-dimethyl-2-(((2S,3S,4R,5S,6S)-3,4,5-triacetoxy-6-(acetoxymethyl)tetrahydro-2H-pyran-2-yl)oxy)ethan-1-aminium Iodide]	–	–	13600	260	1.60	2.16	5	0.214	0.255
